In patent publication US20150307520A1, “NOVEL HETEROARYL AND HETEROCYCLE COMPOUNDS, COMPOSITIONS AND METHODS THEREOF” (HUTCHISON MEDIPHARMA LIMITED, priority 2012, published 2015):

Key:
Format in all cases: biochemical
p110δ/p85α = p110δ/p85α (Homo sapiens, UniProt O00329); test: Transcreener KINASE Assay, kinase inhibition of p110δ/p85α; details: for PI3Kδ IH % @ 1 uM: 1 uM test compound; for IC50: read-out: PI3Kδ IC50
Summary of the method: (§1)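 Recombinant human PI3K heterodimers (p110/p85α) incubated with compound (2% DMSO final) in HEPES/NaCl/EGTA/CHAPS/MgCl2/DTT buffer with 30 uM PIP2 and 10 uM ATP (as added) for 80 min at room temperature.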

p110γ = p110γ (Homo sapiens, UniProt P48736); test: Transcreener KINASE Assay, kinase inhibition of p110γ; details: for PI3Kγ IH % @ 1 uM: 1 uM test compound; for IC50: read-out: PI3Kγ IC50
Summary of the method: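 ADP-detecting fluorescence polarization immunoassay run as two-step endpoint: kinase reaction for 80 min, detection for 60 min, both at room temperature. Enzymes are recombinant p110 isoforms with p85α, except p110γ. IC50s derived from fitted inhibition curves.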

p110β/p85α = p110β/p85α (Homo sapiens, UniProt P42338); test: Transcreener KINASE Assay, kinase inhibition of p110β/p85α; details: for PI3Kβ IH % @ 1 uM: 1 uM test compound; for IC50: read-out: PI3Kβ IC50
Summary of the method: as §1

Chain of p110β/p85α (P42338 whole entry): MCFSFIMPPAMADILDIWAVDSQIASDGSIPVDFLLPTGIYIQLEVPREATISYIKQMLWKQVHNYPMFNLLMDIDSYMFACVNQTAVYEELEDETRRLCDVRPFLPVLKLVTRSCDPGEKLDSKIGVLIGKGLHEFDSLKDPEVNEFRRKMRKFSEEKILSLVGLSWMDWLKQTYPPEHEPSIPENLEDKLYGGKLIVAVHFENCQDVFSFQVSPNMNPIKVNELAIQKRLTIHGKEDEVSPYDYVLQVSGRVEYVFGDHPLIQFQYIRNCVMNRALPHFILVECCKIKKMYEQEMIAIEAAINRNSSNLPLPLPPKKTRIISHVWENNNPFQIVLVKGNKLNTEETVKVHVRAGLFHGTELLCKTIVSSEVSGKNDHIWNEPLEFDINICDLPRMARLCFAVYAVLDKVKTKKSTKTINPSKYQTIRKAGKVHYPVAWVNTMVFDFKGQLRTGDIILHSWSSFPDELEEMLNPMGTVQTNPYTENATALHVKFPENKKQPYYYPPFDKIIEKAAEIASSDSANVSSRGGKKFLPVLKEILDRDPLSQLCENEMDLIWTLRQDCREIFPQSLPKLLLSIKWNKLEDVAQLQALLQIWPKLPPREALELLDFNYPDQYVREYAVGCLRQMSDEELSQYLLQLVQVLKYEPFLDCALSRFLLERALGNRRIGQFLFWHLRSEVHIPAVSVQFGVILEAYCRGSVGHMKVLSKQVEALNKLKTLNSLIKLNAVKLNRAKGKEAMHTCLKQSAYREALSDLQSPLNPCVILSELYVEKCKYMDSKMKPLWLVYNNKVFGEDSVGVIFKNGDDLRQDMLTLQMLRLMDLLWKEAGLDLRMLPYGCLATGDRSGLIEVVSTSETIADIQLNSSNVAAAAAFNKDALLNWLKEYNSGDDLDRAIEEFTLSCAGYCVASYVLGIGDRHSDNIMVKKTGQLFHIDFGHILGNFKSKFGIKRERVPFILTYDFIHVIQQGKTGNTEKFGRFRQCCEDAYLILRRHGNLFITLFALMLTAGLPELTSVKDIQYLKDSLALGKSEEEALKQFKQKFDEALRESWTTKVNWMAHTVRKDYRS
Chain of p110β/p85α (P27986 2-724 partner): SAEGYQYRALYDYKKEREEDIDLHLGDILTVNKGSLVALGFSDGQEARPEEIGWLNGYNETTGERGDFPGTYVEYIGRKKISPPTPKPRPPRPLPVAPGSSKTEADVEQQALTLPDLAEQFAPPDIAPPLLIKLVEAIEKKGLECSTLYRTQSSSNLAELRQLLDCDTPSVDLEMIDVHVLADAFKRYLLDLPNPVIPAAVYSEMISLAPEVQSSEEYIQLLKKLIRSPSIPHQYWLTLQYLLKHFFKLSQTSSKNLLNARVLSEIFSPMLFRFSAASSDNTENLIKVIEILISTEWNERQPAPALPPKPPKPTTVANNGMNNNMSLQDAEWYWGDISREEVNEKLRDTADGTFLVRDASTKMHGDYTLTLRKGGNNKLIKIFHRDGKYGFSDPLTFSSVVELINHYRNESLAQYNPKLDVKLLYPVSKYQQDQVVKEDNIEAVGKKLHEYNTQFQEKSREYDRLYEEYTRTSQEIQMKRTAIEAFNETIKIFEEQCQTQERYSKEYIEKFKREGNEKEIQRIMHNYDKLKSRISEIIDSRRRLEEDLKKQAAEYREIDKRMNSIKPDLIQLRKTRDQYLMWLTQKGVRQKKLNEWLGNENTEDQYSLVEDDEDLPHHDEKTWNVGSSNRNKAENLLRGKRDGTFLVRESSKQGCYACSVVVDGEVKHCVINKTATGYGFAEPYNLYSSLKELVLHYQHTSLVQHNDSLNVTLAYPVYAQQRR
Chain of p110γ (P48736 whole entry, canonical isoform): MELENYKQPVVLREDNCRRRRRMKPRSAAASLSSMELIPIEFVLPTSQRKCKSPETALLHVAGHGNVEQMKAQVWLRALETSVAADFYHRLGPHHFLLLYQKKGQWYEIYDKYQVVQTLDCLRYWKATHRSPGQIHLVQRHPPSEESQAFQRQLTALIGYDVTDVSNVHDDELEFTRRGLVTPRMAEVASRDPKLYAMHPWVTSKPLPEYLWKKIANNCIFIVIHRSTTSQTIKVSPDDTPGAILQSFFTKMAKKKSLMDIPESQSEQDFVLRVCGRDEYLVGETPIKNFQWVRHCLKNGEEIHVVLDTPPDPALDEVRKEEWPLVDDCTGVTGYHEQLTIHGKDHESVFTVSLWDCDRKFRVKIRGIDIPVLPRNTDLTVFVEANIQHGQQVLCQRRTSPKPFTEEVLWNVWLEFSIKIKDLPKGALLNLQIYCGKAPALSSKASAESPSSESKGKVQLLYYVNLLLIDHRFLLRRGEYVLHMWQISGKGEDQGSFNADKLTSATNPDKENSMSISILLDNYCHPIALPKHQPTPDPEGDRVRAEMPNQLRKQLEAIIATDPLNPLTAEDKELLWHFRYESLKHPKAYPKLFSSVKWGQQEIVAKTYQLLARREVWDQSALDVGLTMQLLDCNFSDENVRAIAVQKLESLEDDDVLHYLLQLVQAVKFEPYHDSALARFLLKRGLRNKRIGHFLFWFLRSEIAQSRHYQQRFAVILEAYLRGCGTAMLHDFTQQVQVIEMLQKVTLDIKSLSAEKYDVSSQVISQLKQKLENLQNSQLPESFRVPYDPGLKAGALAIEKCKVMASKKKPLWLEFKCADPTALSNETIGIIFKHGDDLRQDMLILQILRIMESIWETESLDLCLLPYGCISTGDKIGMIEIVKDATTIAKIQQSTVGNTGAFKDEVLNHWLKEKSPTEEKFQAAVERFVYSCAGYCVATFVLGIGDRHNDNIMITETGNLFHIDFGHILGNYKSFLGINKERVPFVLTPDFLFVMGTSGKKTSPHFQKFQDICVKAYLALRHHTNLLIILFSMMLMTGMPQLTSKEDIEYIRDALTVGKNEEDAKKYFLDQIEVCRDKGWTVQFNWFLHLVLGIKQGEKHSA
Chain of p110δ/p85α (O00329 whole entry): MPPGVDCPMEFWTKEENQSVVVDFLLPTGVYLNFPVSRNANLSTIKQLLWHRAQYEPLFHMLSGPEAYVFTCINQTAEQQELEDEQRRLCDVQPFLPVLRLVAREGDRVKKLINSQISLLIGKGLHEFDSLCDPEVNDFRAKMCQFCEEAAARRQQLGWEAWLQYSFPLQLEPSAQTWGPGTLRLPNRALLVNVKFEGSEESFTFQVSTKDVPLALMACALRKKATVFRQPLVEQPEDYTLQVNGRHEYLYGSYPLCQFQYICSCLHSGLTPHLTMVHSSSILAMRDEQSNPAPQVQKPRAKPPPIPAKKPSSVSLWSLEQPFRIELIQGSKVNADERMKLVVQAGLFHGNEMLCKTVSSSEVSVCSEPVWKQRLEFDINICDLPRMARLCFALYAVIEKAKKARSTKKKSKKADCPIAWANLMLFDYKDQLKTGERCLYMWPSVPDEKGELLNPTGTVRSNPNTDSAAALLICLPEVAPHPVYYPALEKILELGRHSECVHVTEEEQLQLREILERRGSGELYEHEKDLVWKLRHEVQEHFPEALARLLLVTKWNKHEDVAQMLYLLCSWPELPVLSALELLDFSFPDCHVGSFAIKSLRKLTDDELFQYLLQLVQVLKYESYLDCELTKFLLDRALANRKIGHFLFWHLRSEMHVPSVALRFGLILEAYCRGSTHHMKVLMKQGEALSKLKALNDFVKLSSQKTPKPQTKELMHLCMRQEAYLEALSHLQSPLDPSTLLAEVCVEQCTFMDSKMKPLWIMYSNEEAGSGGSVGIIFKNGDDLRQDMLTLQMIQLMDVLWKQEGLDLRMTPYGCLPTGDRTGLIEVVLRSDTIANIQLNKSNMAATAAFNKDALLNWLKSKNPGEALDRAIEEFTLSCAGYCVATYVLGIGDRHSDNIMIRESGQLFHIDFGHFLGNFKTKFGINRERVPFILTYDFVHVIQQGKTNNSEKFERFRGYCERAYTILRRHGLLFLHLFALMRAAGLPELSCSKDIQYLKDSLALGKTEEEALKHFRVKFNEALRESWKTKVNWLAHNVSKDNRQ
Chain of p110δ/p85α (P27986 whole entry partner): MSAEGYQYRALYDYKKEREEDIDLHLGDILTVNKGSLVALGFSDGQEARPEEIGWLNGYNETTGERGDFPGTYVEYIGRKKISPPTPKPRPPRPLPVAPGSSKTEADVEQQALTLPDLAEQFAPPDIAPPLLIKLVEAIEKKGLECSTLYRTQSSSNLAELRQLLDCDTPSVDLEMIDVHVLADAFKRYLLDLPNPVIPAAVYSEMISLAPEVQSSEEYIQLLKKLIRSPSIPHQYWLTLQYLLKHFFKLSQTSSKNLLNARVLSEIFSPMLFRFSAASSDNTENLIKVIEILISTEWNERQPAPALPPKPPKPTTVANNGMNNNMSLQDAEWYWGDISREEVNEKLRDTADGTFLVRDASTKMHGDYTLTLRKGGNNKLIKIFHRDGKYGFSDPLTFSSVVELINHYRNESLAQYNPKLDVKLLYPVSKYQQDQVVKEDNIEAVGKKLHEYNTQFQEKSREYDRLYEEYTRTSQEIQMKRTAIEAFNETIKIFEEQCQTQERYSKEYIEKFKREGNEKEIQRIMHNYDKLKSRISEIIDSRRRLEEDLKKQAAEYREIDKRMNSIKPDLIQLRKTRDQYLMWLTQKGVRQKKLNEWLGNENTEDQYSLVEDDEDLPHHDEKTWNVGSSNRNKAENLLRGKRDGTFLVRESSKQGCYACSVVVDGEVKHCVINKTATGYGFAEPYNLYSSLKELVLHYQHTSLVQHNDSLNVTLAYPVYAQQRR

Compound	PI3Kδ IH % @ 1 uM (p110δ/p85α) [%]	IC50 (p110δ/p85α) [nM]	PI3Kγ IH % @ 1 uM (p110γ) [%]	IC50 (p110γ) [nM]	PI3Kβ IH % @ 1 uM (p110β/p85α) [%]	IC50 (p110β/p85α) [nM]
CC(Nc1ncnc2[nH]cnc12)c1cn2ccc(Cl)c2c(=O)n1-c1ccc(F)cc1 (centres unmarked) [Compound 78]	98.2		91.2		92.4	
CC(=O)c1cnc(N)nc1N1CC(=O)C[C@H]1c1nn2ccc(F)c2c(=O)n1-c1ccccc1 [Compound 446]	85.8	319	40.0		20.1	
COc1cnc(N)nc1N1CC[C@H]1c1nn2ccc(Cl)c2c(=O)n1-c1ccccc1 [Compound 284]	51.2		51.2		9.7	
N#Cc1c[nH]c2ncnc(N3CC(F)(F)C[C@H]3c3nn4ccc(Cl)c4c(=O)n3Cc3ccccn3)c12 [Compound 160]	80.2	140	34.3		11.4	
CC(Nc1ncnc2[nH]cc(-c3ccc(N)nc3)c12)c1cc2ncc(Cl)n2c(=O)n1-c1ccccc1 (centres unmarked) [Compound 174]	>100	1	94.0	31	97.7	23
COc1ncc(-c2c[nH]c3ncnc(NC(C)c4cc5ncc(Cl)n5c(=O)n4-c4ccccc4)c23)cn1 (centres unmarked) [Compound 175]	99.5	1	87.6	105	90.9	78
CC(=O)c1cnc(N)nc1N1C[C@H](C)[C@H]1c1nn2ccc(F)c2c(=O)n1-c1ccccc1 [Compound 324]	98.8	1	>100	5	67.1	456
CC(=O)c1c[nH]c2ncnc(N3C[C@@H](F)C[C@H]3c3nn4ccc(Cl)c4c(=O)n3-c3cccc(F)c3)c12 [Compound 216]	96.5	2	91.8	3	65.1	
CC(=O)c1cnc(N)nc1N1C[C@H](C)[C@H]1c1nn2ccc(C#N)c2c(=O)n1-c1ccccc1 [Compound 500]	95.4	6	98.7	7	71.5	674
Nc1ncc([N+](=O)[O-])c(N2CC[C@H]2c2nn3ccc(Cl)c3c(=O)n2-c2ccccc2)n1 [Compound 282]	94.9		93.5		19.9	
CC(Nc1nc(N)nc2c1C(=O)CCN2)c1cn2ccc(Cl)c2c(=O)n1-c1ccccc1 (centres unmarked) [Compound 275]	>100	0.4	97.8	1	97.5	12
Cc1nc(N)nc(N2C[C@H](C)[C@H]2c2nn3ccc(Cl)c3c(=O)n2-c2ccccc2)n1 [Compound 469]	>100	19	90.5	51	47.1	
CC(Nc1ncnc2[nH]cc(C#N)c12)c1cn2ccc(Cl)c2c(=O)n1-c1ccccc1 (centres unmarked) [Compound 88]	93.2		98.0	14	94.7	58
N#Cc1cnc(N)nc1N1C[C@@H](C#N)C[C@H]1c1nn2ccc(Cl)c2c(=O)n1-c1ccccc1 [Compound 351]	>100	1	95.5	3	89.6	81
N#C[C@H]1C[C@@H](c2nn3ccc(Cl)c3c(=O)n2-c2cccc(F)c2)N(c2ncnc3[nH]cnc23)C1 [Compound 347, (3S,5S)-5-(5-chloro-3-(3-fluorophenyl)-4-oxo-3,4-dihydropyrrolo[2,1-f][1,2,4]triazin-2-yl)-1-(9H-purin-6-yl)pyrrolidine-3-carbonitrile]	98.3	2	91.8	13	87.8	70

Further lines, results first:

PI3Kδ IH % @ 1 uM (p110δ/p85α) [%]	IC50 (p110δ/p85α) [nM]	PI3Kγ IH % @ 1 uM (p110γ) [%]	IC50 (p110γ) [nM]	PI3Kβ IH % @ 1 uM (p110β/p85α) [%]	IC50 (p110β/p85α) [nM]	Compound
99.7	1	98.2	19	>100	46	N#Cc1ncc(-c2c[nH]c3ncnc(N4CC[C@H]4c4nn5ccc(Cl)c5c(=O)n4-c4ccccc4)c23)cn1 [Compound 103]
>100	5	92.3	151	28.2		N#Cc1c(N)ncnc1N1CC(F)(F)C[C@H]1c1nn2ccc(Cl)c2c(=O)n1-c1ccccc1 [Compound 141]
96.4	23	94.9	133	56.0		N#Cc1c[nH]c2ncnc(N3CCC[C@H]3c3nn4ccc(Cl)c4c(=O)n3Cc3ncccn3)c12 [Compound 155]
>100	5	92.0	42	43.0		COCC#Cc1c[nH]c2ncnc(N3CC[C@H]3c3nn4ccc(Cl)c4c(=O)n3-c3ccccc3)c12 [Compound 279]
31.3		0.6		−3.2		NC(=O)c1c[nH]c2ncnc(N3CC[C@H]3c3nn4ccc(Cl)c4c(=O)n3-c3ccccc3)c12 [Compound 163]
>100		>100	3	>100	17	Nc1ncc(-c2c[nH]c3ncnc(N4CC[C@H]4c4nn5ccc(Cl)c5c(=O)n4-c4ccccc4)c23)cn1 [Compound 104]
98.1	1	93.1	7	71.7	123	N#Cc1cnc(N)nc1N1CC(=O)C[C@H]1c1nn2ccc(Cl)c2c(=O)n1-c1ccccc1 [Compound 403]
>100	11	94.6	99	35.5		N#Cc1c[nH]c2ncnc(N3CC[C@H]3c3nn4ccc(Cl)c4c(=O)n3-c3ccccn3)c12 [Compound 309, (S)-4-(2-(5-chloro-4-oxo-3-(pyridin-2-yl)-3,4-dihydropyrrolo[2,1-f][1,2,4]triazin-2-yl)azetidin-1-yl)-7H-pyrrolo[2,3-d]pyrimidine-5-carbonitrile]
53.0		73.0		4.8		Nc1nc2c(c(N3CC[C@H]3c3nn4ccc(Cl)c4c(=O)n3-c3ccccc3)n1)CCC2 [Compound 247]
>100		>100	4	95.9	23	COc1ncc(-c2c[nH]c3ncnc(N4CC[C@H]4c4nn5ccc(F)c5c(=O)n4-c4ccccc4)c23)cn1 [Compound 181]
>100	7	94.7	112	45.1		C=Cc1ccn2nc([C@@H]3CCCN3c3ncnc4[nH]cc(C#N)c34)n(-c3ccccc3)c(=O)c12 [Compound 292]
>100	3	>100	32	56.8		O=c1c2c(F)ccn2nc([C@@H]2CCCN2c2ncnc3[nH]cnc23)n1-c1cccc(F)c1 [Compound 191]
99.2	5	79.3	287	54.4		N#Cc1c[nH]c2ncnc(N3CCOCC3c3nn4ccc(Cl)c4c(=O)n3-c3ccccc3)c12 (centres unmarked) [Compound 152]
88.1	172	65.9		11.5		CCc1ccn2nc([C@@H]3CCN3c3ncnc4[nH]cc(C#N)c34)n(-c3ccccc3)c(=O)c12 [Compound 133, (S)-4-(2-(5-ethyl-4-oxo-3-phenyl-3,4-dihydropyrrolo[2,1-f][1,2,4]triazin-2-yl)azetidin-1-yl)-7H-pyrrolo[2,3-d]pyrimidine-5-carbonitrile]
96.2	2	80.7	173	69.3		C[S@+]([O-])c1c[nH]c2ncnc(N3CCC[C@H]3c3nn4ccc(Cl)c4c(=O)n3-c3ccccn3)c12 [Compound 388, 5-chloro-2-((S)-1-(5-((S)-methylsulfinyl)-7H-pyrrolo[2,3-d]pyrimidin-4-yl)pyrrolidin-2-yl)-3-(pyridin-2-yl)pyrrolo[2,1-f][1,2,4]triazin-4(3H)-one]
100.0	1	94.3	9	76.1	163	CC(=O)c1c[nH]c2ncnc(N3CCC[C@H]3c3nn4ccc(Cl)c4c(=O)n3-c3ccccn3)c12 [Compound 340]
99.3	3	>100	26	70.6	475	O=c1c2c(Cl)ccn2nc([C@@H]2CSCN2c2ncnc3[nH]cnc23)n1-c1ccccc1 [Compound 294, (R)-2-(3-(9H-purin-6-yl)thiazolidin-4-yl)-5-chloro-3-phenylpyrrolo[2,1-f][1,2,4]triazin-4(3H)-one]
